Assay results as given in paper PMC11643494, “Structure–Activity Relationship Studies in a Series of 2-Aryloxy-N-(pyrimidin-5-yl)acetamide Inhibitors of SLACK Potassium Channels” (Molecules, 2024).
pIC50: −log10 of the molar value.

Target: T1, Mouse WT SLACK (Mus musculus, UniProt Q6ZPR4)
T1 construct: expressed in transfected cells; host or cells: CHO-K1
T1 sequence (Q6ZPR4 1-1224): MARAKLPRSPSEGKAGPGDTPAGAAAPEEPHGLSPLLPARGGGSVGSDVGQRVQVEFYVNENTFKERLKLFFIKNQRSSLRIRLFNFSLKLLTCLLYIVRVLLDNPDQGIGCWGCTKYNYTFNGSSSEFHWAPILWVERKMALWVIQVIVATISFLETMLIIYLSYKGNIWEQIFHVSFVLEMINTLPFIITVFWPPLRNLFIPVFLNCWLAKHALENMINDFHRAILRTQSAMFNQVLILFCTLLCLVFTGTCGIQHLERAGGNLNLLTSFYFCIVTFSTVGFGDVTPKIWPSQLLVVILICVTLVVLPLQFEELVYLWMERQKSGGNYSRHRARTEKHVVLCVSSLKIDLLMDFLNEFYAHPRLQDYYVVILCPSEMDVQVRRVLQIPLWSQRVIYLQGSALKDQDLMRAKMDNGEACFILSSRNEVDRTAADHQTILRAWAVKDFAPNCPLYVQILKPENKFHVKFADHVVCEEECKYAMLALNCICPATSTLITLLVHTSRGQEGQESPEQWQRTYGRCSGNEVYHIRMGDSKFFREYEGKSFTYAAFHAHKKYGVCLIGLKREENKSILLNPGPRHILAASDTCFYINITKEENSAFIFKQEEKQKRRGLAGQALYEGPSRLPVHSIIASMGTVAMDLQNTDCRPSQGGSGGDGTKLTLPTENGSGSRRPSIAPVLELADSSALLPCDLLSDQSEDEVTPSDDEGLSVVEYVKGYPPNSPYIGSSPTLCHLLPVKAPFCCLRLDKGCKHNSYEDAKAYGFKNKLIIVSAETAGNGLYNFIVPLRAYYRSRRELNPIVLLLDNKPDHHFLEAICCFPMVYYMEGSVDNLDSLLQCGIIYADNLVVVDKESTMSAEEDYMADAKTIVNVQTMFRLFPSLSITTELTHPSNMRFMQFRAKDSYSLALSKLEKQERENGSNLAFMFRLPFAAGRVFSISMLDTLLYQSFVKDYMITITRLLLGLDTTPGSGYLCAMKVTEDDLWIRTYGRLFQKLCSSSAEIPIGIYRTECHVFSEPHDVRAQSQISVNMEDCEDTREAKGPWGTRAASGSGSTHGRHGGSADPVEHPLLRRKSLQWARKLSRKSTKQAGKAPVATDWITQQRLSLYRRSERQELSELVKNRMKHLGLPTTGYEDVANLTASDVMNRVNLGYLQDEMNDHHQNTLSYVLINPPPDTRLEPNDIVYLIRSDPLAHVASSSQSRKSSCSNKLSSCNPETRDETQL
Assay: Whole-cell APC in CHO-K1 cells stably expressing mouse WT SLACK
Format: cell-based
Conditions: for pIC50: APC, CHO-K1 cells; for Imax: maximum inhibition at 30 µM standardized to VU0606170 (set at 100%)
Protocol: Finally, we chose to screen the same two compounds versus mouse SLACK and two clinically relevant GOF SLACK mutants in APC assays utilizing CHO-K1 cells stably expressing these targets (Table 7). Screening versus the mouse homolog was deemed important for evaluating the potential of the series to ultimately lead to a useful in vivo tool via further optimization.
Automated patch clamp recording was performed with a SyncroPatch 768 PE system (Nanion, Munich, Germany) as previously described. Whole-cell recordings were performed at room temperature. Cells were harvested by first washing with PBS without Mg^2+ or Ca^2+ (Gibco, Billings, MT, USA) to remove cell culture medium, followed by dissociation with TryPLE (Gibco, Billings, MT, USA). Cells were then resuspended and diluted to 200,000 cells/mL in external solution. External solution contained 105 mM NaCl, 4 mM KCl, 1 mM MgCl2, 5 mM CaCl2, 10 mM HEPES, 40 mM N-Methyl-D-glucamine chloride, titrated to pH 7.4 with NaOH and osmolarity of 300 mOsm/kg; internal solution contained 70 mM NaCl, 70 mM KF, 10 mM KCl, 5 mM EGTA, 5mM HEPES, titrated to a pH 7.2 with KOH and osmolarity of 295 mOsm/kg.
The APC protocol was set as following: Cells were held at […] −80 mV for 100 ms, then a ramp protocol was performed from −100 mV to 80 mV at 0.4 mV/ms, hold the cell at −80 mV for another 100 ms, then steps were performed at −20 mV, 0 mV, +20 mV, +40 mV, and +60 mV for 100 ms of each step. Whole-cell currents were measured at 0 mV and normalized to current after external buffer addition.

Row | SMILES | pIC50 | Imax [%]
1 | CN(c1ccc(C#N)cc1)c1ncc(NC(=O)C(C)(C)Oc2ccc(Cl)cc2)cn1 [Analog 66] | 6.10 | 91
2 | CC(C)(Oc1ccc(Cl)cc1)C(=O)Nc1cnc(Oc2c(F)cccc2F)nc1 [Analog 40] | 6.49 | 100
